Source: patent publication US8410097B2 (priority 2005, dated 2013)
pKi: −log10 of the molar value. Where two headings read alike, the source gives them in different places.

Legend:
CB2 cannabinoid receptor = CB2 cannabinoid receptor (Mus musculus, UniProt P47936); assay: biochemical; format: binding; conditions: mouse spleen membranes; for pKi: [3H] CP-55,940
Description: Some of the inventive analogs were tested for CB2 receptor binding affinity and for CB1 receptor affinity (to determine selectivity). […] The lower the Ki value the higher the binding affinity.
(§1) The treated membranes were subsequently used in the binding assay described below. Approximately 30 μg of membranes were incubated in silanized 96-well microtiter plate with TME containing 0.1% essentially fatty acid-free bovine serum albumin (BSA), 0.8 nM [^3H] […] Radioactivity was detected using MicroScint 20 scintillation cocktail added directly to the dried filterplates, and the filterplates were counted using a Packard Instruments Top-Count. […] Data collected from three independent experiments performed with duplicate determinations was normalized between 100% and 0% specific binding for [^3H] […] The normalized data was analyzed using a 4-parameter nonlinear logistic equation to yield IC50 values.
Silanized centrifuge tubes were used throughout to minimize receptor loss due to adsorption. The CB2 binding assay was conducted in the same manner as for the CB1 binding assay. The binding affinities (Ki) were also expressed in nanomoles (nM).

CB1 cannabinoid receptor = target: T1, CB1 cannabinoid receptor (Rattus norvegicus, UniProt P20272); assay: biochemical; format: binding; conditions: for pKi / Ki: rat forebrain membranes; for pKi: 0.8 nM [3H] CP-55,940; for Selectivity CB1: CB1 over CB2 binding selectivity (ratio of Ki)
T1 construct: membranes were prepared from rat forebrain membranes; from tissue; host or cells: rat forebrain membranes
Description: Some of the inventive analogs were tested for CB2 receptor binding affinity and for CB1 receptor affinity (to determine selectivity). […] The lower the Ki value the higher the binding affinity. […]
Membranes, previously frozen at −80° C., were thawed on ice. To the stirred suspension was added three volumes of TME (25 mM Tris-HCl buffer, 5 mM MgCl2 and 1 mM EDTA) at a pH 7.4. The suspension was incubated at 4° C. for 30 min. At the end of the incubation, the membranes were pelleted and washed three times with TME.
as §1

[1] = Table 8, read-out: Receptor Affinities Ki (nM) CB2
[2] = Receptor Affinities Ki (nM) CB1, Table 8
[3] = Table 9, read-out: Receptor Affinities Ki (nM) CB2
[4] = Receptor Affinities Ki (nM) CB1, Table 9

T1 sequence (P20272 whole entry): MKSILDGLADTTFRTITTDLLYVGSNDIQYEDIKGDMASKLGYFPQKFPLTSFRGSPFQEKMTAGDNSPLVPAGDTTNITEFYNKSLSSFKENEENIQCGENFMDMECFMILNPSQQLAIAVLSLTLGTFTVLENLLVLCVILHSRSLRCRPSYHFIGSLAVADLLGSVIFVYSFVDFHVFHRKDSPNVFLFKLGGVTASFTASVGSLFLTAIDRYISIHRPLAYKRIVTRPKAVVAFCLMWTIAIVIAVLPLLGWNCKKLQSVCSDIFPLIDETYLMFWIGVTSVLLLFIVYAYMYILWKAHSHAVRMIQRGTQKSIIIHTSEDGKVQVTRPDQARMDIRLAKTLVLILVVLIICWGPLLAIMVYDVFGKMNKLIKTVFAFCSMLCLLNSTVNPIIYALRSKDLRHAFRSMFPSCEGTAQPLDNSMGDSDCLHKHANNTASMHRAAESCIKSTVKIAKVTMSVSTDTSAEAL
Sequence of CB2 cannabinoid receptor (P47936 whole entry): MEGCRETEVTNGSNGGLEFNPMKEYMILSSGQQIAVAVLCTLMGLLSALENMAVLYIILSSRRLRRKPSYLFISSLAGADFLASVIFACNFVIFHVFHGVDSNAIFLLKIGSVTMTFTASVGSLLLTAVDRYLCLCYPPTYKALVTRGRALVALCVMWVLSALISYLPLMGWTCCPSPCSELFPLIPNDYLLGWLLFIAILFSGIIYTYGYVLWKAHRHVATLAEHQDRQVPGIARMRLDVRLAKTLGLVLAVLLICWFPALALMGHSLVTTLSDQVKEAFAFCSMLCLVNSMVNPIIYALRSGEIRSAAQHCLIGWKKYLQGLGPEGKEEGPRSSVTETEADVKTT

Cc1c(C(=O)N(C)C2CCCCC2)nc(-c2ccc(Cl)cc2Cl)n1-c1ccc(-c2nnnn2C)cc1 [Compound 1-23]
pKi (CB2 cannabinoid receptor; CB2 Ki, Table 6): 5.38 | pKi (CB1 cannabinoid receptor; CB1 Ki, Table 6): 6.01

Cc1c(C(=O)N(C)C2CCCCC2)nc(-c2ccc(Cl)cc2Cl)n1-c1ccc(-c2nnn(C)n2)cc1 [Compound 1-24]
pKi (CB2 cannabinoid receptor; Table 6, read-out: CB2 Ki): 6.66 | pKi (CB1 cannabinoid receptor; CB1 Ki, Table 6): 7.95

CN(C(=O)c1nc(-c2ccc(Cl)cc2Cl)n(-c2ccc(-c3nnn[nH]3)cc2)c1CO)C1CCCCC1 [Compound 1-25]
pKi (CB2 cannabinoid receptor; Table 6, read-out: CB2 Ki): 6.07 | pKi (CB1 cannabinoid receptor; Table 6, read-out: CB1 Ki): 5.28

CN(C(=O)c1nc(-c2ccc(Cl)cc2Cl)n(-c2ccc(-c3nnnn3C)cc2)c1CO)C1CCCCC1 [Compound 1-26]
pKi (CB2 cannabinoid receptor; Table 6, read-out: CB2 Ki): 5.88 | pKi (CB1 cannabinoid receptor; Table 6, read-out: CB1 Ki): 6.99

CN(C(=O)c1nc(-c2ccc(Cl)cc2Cl)n(-c2ccc(-c3nnn(C)n3)cc2)c1CO)C1CCCCC1 [Compound 1-27]
pKi (CB2 cannabinoid receptor; Table 6, read-out: CB2 Ki): 6.21 | pKi (CB1 cannabinoid receptor; CB1 Ki, Table 6): 7.72

Cc1c(C(=O)NN2CCCCC2)nc(-c2ccc(Cl)cc2Cl)n1-c1ccc(-c2nccs2)cc1 [Compound 1-28]
pKi (CB2 cannabinoid receptor; Table 6, read-out: CB2 Ki): 6.18 | pKi (CB1 cannabinoid receptor; CB1 Ki, Table 6): 8.11

N=C(S)c1ccc(-n2c(-c3ccc(Cl)cc3Cl)nc(C(=O)NN3CCCCC3)c2CO)cc1 [Compound 1-29]
pKi (CB2 cannabinoid receptor; Table 6, read-out: CB2 Ki): 6.19 | pKi (CB1 cannabinoid receptor; CB1 Ki, Table 6): 7.32

O=C(NN1CCCCC1)c1nc(-c2ccc(Cl)cc2Cl)n(-c2ccc(-c3nccs3)cc2)c1CO [Compound 1-30]
pKi (CB2 cannabinoid receptor; Table 6, read-out: CB2 Ki): 5.82 | pKi (CB1 cannabinoid receptor; CB1 Ki, Table 6): 7.62

Cc1c(C(=O)NN2CCCCC2)nc(-c2ccc(Cl)cc2Cl)n1-c1ccc(C#CCO)cc1 [Compound 1-31]
pKi (CB2 cannabinoid receptor; Table 6, read-out: CB2 Ki): 5.94 | pKi (CB1 cannabinoid receptor; CB1 Ki, Table 6): 7.74

Cc1c(C(=O)NN2CCCCC2)nc(-c2ccc(Cl)cc2Cl)n1-c1ccc(C#CCCO)cc1 [Compound 1-32]
pKi (CB2 cannabinoid receptor; Table 6, read-out: CB2 Ki): 5.29 | pKi (CB1 cannabinoid receptor; CB1 Ki, Table 6): 8.21

Cc1c(C(=O)NN2CCCCC2)nc(-c2ccc(Cl)cc2Cl)n1-c1ccc(C#CCCC#N)cc1 [Compound 1-33]
pKi (CB2 cannabinoid receptor; Table 6, read-out: CB2 Ki): 6.57 | pKi (CB1 cannabinoid receptor; CB1 Ki, Table 6): 8.80

O=C(NN1CCCCC1)c1nc(-c2ccc(Cl)cc2Cl)n(-c2ccc(C#CCO)cc2)c1CO [Compound 1-34]
pKi (CB2 cannabinoid receptor; CB2 Ki, Table 6): 5.27 | pKi (CB1 cannabinoid receptor; CB1 Ki, Table 6): 7.63

Cc1c(NC(=O)NC2CCCCC2)nc(-c2ccc(Cl)cc2Cl)n1-c1ccc(Br)cc1 [Compound 1-35]
pKi (CB2 cannabinoid receptor; CB2 Ki, Table 6): 4.69 | pKi (CB1 cannabinoid receptor; CB1 Ki, Table 6): 8.16

Cc1c(NC(=O)NC2CCCCC2)nc(-c2ccc(Cl)cc2Cl)n1-c1ccc(I)cc1 [Compound 1-36]
pKi (CB2 cannabinoid receptor; Table 6, read-out: CB2 Ki): 5.14 | pKi (CB1 cannabinoid receptor; CB1 Ki, Table 6): 8.92

Cc1c(NC(=O)N(C)C2CCCCC2)nc(-c2ccc(Cl)cc2Cl)n1-c1ccc(Br)cc1 [Compound 1-37]
pKi (CB2 cannabinoid receptor; Table 6, read-out: CB2 Ki): 5.85 | pKi (CB1 cannabinoid receptor; CB1 Ki, Table 6): 7.85

O=C(Nc1nc(-c2ccc(Cl)cc2Cl)n(-c2ccc(I)cc2)c1CBr)NC1CCCCC1 [Compound 1-38]
pKi (CB2 cannabinoid receptor; Table 6, read-out: CB2 Ki): 7.12 | pKi (CB1 cannabinoid receptor; CB1 Ki, Table 6): 8.30

O=C(Nc1nc(-c2ccc(Cl)cc2Cl)n(-c2ccc(I)cc2)c1CO)NC1CCCCC1 [Compound 1-39]
pKi (CB2 cannabinoid receptor; Table 6, read-out: CB2 Ki): 5.87 | pKi (CB1 cannabinoid receptor; CB1 Ki, Table 6): 8.17

CN(C(=O)Nc1nc(-c2ccc(Cl)cc2Cl)n(-c2ccc(Br)cc2)c1CO)C1CCCCC1 [Compound 1-40]
pKi (CB2 cannabinoid receptor; Table 6, read-out: CB2 Ki): 5.99 | pKi (CB1 cannabinoid receptor; CB1 Ki, Table 6): 8.00

[N-]=[N+]=NCc1c(C(=O)NN2CCCCC2)nc(-c2ccc(Cl)cc2Cl)n1-c1ccc(Br)cc1 [Compound 1-41]
pKi (CB2 cannabinoid receptor; Table 6, read-out: CB2 Ki): 6.02 | pKi (CB1 cannabinoid receptor; CB1 Ki, Table 6): 8.15

Cc1c(C(=O)NN2CCCCC2)nn(-c2ccc(Cl)cc2Cl)c1-c1ccc(C#CCO)cc1 [Compound 2-1, 1-(2,4-Dichloro-phenyl)-5-[4-(3-hydroxy-prop-1-ynyl)-phenyl]-4-methyl-1H-pyrazole-3-carboxylic acid piperidin-1-ylamide]
pKi (CB2 cannabinoid receptor; Table 7, read-out: CB2 Ki): 5.83 | pKi (CB1 cannabinoid receptor; CB1 Ki, Table 7): 7.48

Cc1c(C(=O)NN2CCCCC2)nn(-c2ccc(Cl)cc2Cl)c1-c1ccc(C#CCCO)cc1 [Compound 2-2]
pKi (CB2 cannabinoid receptor; Table 7, read-out: CB2 Ki): 6.36 | pKi (CB1 cannabinoid receptor; CB1 Ki, Table 7): 7.71

Cc1c(C(=O)NN2CCCCC2)nn(-c2ccc(Cl)cc2Cl)c1-c1ccc(C#CCCC#N)cc1 [Compound 2-3]
pKi (CB2 cannabinoid receptor; Table 7, read-out: CB2 Ki): 6.90 | pKi (CB1 cannabinoid receptor; CB1 Ki, Table 7): 9.46

N#CCCC#Cc1ccc(-c2c(CO)c(C(=O)NN3CCCCC3)nn2-c2ccc(Cl)cc2Cl)cc1 [Compound 3-1]
Ki (CB2 cannabinoid receptor; [1]): 265 nM | Ki (CB1 cannabinoid receptor; [2]): 6 nM | Selectivity CB1 (CB1 cannabinoid receptor; Table 8): 44

O=C(NN1CCCCC1)c1nn(-c2ccc(Cl)cc2Cl)c(-c2ccc(C#CCCO)cc2)c1CO [Compound 3-2]
Ki (CB2 cannabinoid receptor; [1]): 165 nM | Ki (CB1 cannabinoid receptor; [2]): 16 nM | Selectivity CB1 (CB1 cannabinoid receptor; Table 8): 10

Cc1c(C(=O)NN2CCCCC2)nn(-c2ccc(Cl)cc2Cl)c1-c1ccc(C#CCN=[N+]=[N-])cc1 [Compound 3-3]
Ki (CB2 cannabinoid receptor; [1]): 750 nM | Ki (CB1 cannabinoid receptor; [2]): 3 nM | Selectivity CB1 (CB1 cannabinoid receptor; Table 8): 250

O=C(NN1CCCCC1)c1nn(-c2ccc(Cl)cc2Cl)c(-c2ccc(C#CCO)cc2)c1CO [Compound 3-4]
Ki (CB2 cannabinoid receptor; [1]): 313 nM | Ki (CB1 cannabinoid receptor; [2]): 21 nM | Selectivity CB1 (CB1 cannabinoid receptor; Table 8): 15

Cc1c(C(=O)NN2CCCCC2)nn(-c2ccc(Cl)cc2Cl)c1-c1ccc(C#CCCCO)cc1 [Compound 3-5]
Ki (CB2 cannabinoid receptor; [1]): 144 nM | Ki (CB1 cannabinoid receptor; [2]): 2 nM | Selectivity CB1 (CB1 cannabinoid receptor; Table 8): 72

Cc1c(C(=O)NN2CC3CCCC3C2)nn(-c2ccc(Cl)cc2Cl)c1-c1ccc(C#CCCO)cc1 (centres unmarked) [Compound 3-6]
Ki (CB2 cannabinoid receptor; [1]): 199 nM | Ki (CB1 cannabinoid receptor; [2]): 7 nM | Selectivity CB1 (CB1 cannabinoid receptor; Table 8): 28

Cc1c(C(=O)NN2CCCCC2)nn(-c2ccc(Cl)cc2Cl)c1-c1ccc(C#CCCCCO)cc1 [Compound 3-7]
Ki (CB2 cannabinoid receptor; [1]): 116 nM | Ki (CB1 cannabinoid receptor; [2]): 3 nM | Selectivity CB1 (CB1 cannabinoid receptor; Table 8): 39

Cc1c(C(=O)N(C)C2CCCCC2)nc(-c2ccc(Cl)cc2Cl)n1-c1ccc(C#CCCO)cc1 [Compound 3-8]
Ki (CB2 cannabinoid receptor; Receptor Affinities Ki (nM) CB2, Table 8): 440 nM | Ki (CB1 cannabinoid receptor; [2]): 12 nM | Selectivity CB1 (CB1 cannabinoid receptor; Table 8): 36

Cc1c(C(=O)N(C)C2CCCCC2)nc(-c2ccc(Cl)cc2Cl)n1-c1ccc(C#CCO)cc1 [Compound 3-9]
Ki (CB2 cannabinoid receptor; [1]): 257 nM | Ki (CB1 cannabinoid receptor; [2]): 27 nM | Selectivity CB1 (CB1 cannabinoid receptor; Table 8): 9

N#CCCC#Cc1ccc(-n2c(-c3ccc(Cl)cc3Cl)nc(C(=O)NN3CCCCC3)c2CO)cc1 [Compound 3-10]
Ki (CB2 cannabinoid receptor; [1]): 279 nM | Ki (CB1 cannabinoid receptor; [2]): 2 nM | Selectivity CB1 (CB1 cannabinoid receptor; Table 8): 140

Cc1c(C(=O)N(C)C2CCCCC2)nc(-c2ccc(Cl)cc2Cl)n1-c1ccc(C#CCN=[N+]=[N-])cc1 [Compound 3-11]
Ki (CB2 cannabinoid receptor; [1]): 82 nM | Ki (CB1 cannabinoid receptor; [2]): 1 nM | Selectivity CB1 (CB1 cannabinoid receptor; Table 8): 82

Cc1c(C(=O)NN2CCCCC2)nn(-c2ccc(Cl)cc2Cl)c1-c1ccc(CCCO)cc1 [Compound 4-1, 1-(2,4-Dichloro-phenyl)-5-[4-(3-hydroxy-propyl)-phenyl]-4-methyl-1H-pyrazole-3-carboxylic acid piperidin-1-ylamide]
Ki (CB2 cannabinoid receptor; [3]): 230 nM | Ki (CB1 cannabinoid receptor; [4]): 26 nM | Selectivity CB1 (CB1 cannabinoid receptor; Table 9): 8

Cc1c(C(=O)NN2CCCCC2)nn(-c2ccc(Cl)cc2Cl)c1-c1ccc(CCCCO)cc1 [Compound 4-2]
Ki (CB2 cannabinoid receptor; [3]): 43 nM | Ki (CB1 cannabinoid receptor; [4]): 2 nM | Selectivity CB1 (CB1 cannabinoid receptor; Table 9): 21

O=C(NN1CCCCC1)c1nn(-c2ccc(Cl)cc2Cl)c(-c2ccc(CCCCO)cc2)c1CO [Compound 4-3]
Ki (CB2 cannabinoid receptor; [3]): 7540 nM | Ki (CB1 cannabinoid receptor; [4]): 31 nM | Selectivity CB1 (CB1 cannabinoid receptor; Table 9): 243

Cc1c(C(=O)NN2CCCCC2)nn(-c2ccc(Cl)cc2Cl)c1-c1ccc(CCC#N)cc1 [Compound 4-4]
Ki (CB2 cannabinoid receptor; [3]): 2290 nM | Ki (CB1 cannabinoid receptor; [4]): 13 nM | Selectivity CB1 (CB1 cannabinoid receptor; Table 9): 176

Cc1c(C(=O)NN2CCCCC2)nn(-c2ccc(Cl)cc2Cl)c1-c1ccc(CCCCN=[N+]=[N-])cc1 [Compound 4-5]
Ki (CB2 cannabinoid receptor; [3]): 177 nM | Ki (CB1 cannabinoid receptor; [4]): 3 nM | Selectivity CB1 (CB1 cannabinoid receptor; Table 9): 59

O=C(NN1CCCCC1)c1nn(-c2ccc(Cl)cc2Cl)c(-c2ccc(CCCO)cc2)c1CO [Compound 4-6]
Ki (CB2 cannabinoid receptor; [3]): 66 nM | Ki (CB1 cannabinoid receptor; [4]): 21 nM | Selectivity CB1 (CB1 cannabinoid receptor; Table 9): 3
